Laboratory results as given in publication PMC12669278, “VDAC1-interacting proteins: binding site mapping and their derived peptides induce apoptosis and multifaceted cellular effects” (Apoptosis, 2025).

Target: purified VDAC1 (Homo sapiens, UniProt P21796)
Test: Glass-bound peptide array probed with purified VDAC1 and anti-VDAC1 antibodies
Type: binding
Set-up: key: +: low; ++: medium; +++: high
Details: glass-bound peptide array incubated 4 h with purified VDAC1 (64 nM), chemiluminescence; for Spot intensity, detected using anti-VDAC1 internal sequence: antibody against VDAC1 amino acids 150-250; for Spot intensity, detected using anti-N-terminus VDAC1: antibody against VDAC1 N-terminus
Method: A customized peptide array was produced by INTAVIS Peptide Services (GmbH & Co. KG, Tübingen, Germany). It comprised 768 peptide sequences derived from 19 VDAC1-interacting proteins that were arrayed on a glass slide. Each peptide was composed of 25 amino acids with an overlap of 15 amino acids with the peptides before and following it.
The interaction of purified VDAC1 with glass-bound peptide arrays was assessed by washing the slide three times, 10 min each, with TBST (150 mM NaCl, 50 mM Tris/HCl, pH 7.4, 0.1% Tween-20), followed by overnight incubation with blocking buffer (TBS, pH 7.8, containing low-fat dry milk, 2.5%, w/v) at 4 °C. Then slides were incubated with purified VDAC1 in protein-interacting buffer (20 mM HEPES, 100 mM KCl, pH,7.4, PBS) for 4 h at room temperature (RT). After washing, with TBST, slides were incubated overnight at 4 °C with anti-VDAC1 antibody against a sequence of 150–250 amino acids or against the VDAC1-N-terminus. Slides were then washed with TBST, followed by the appropriate secondary anti-HRP conjugated antibody for 2 h at RT. They were washed again with TBST and developed using enhanced chemiluminescence EZ-ECL (Biological Industries), according to the manufacturer’s instructions. The signal was captured in the dark using FUSION-FX (Vilber Lourmat) software.

purified VDAC1, sequence (P21796 whole entry, species assumed): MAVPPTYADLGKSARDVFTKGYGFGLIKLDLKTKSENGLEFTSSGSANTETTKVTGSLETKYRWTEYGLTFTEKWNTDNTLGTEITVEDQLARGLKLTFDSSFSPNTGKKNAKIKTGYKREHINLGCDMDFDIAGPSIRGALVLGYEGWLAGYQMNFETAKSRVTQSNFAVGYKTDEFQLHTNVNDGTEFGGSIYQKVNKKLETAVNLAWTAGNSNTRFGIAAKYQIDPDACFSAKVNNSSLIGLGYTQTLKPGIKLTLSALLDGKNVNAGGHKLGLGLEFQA

Row | Sequence | Spot intensity, detected using anti-VDAC1 internal sequence | Spot intensity, detected using anti-N-terminus VDAC1
1 | AAAATTVAWYQVSPLAARLLYPYLA [1H10, array peptide from TSPO] | ++ | –
2 | AGATSSLTPSRGPVSPSVSFQPLAR [1K9, array peptide from MAVS] | – | +++
3 | AIYDICRRNLDIERPTYTNLNRLIS [2A11, array peptide from tubulin alpha 1b] | + | +++
4 | AKYDDIKKVVKQASEGPLKGILGYT [2C18, array peptide from GAPDH1] | ++ | +++
5 | ALSSQHQARIEIESFYEGEDFSETL [2L3, array peptide from BiP1] | – | ++
6 | ASIHGYLGIVELLVSLGADVNAQEP [2F17] | + | ++
7 | AVDTDSPREVFFRVAADMFSDGNFN [1B5, array peptide from BAX] | – | +++
8 | AVIGGSAGASPPSTLTPDSRRVARP [2D10, array peptide from Mcl-1] | – | +
9 | DDEGMGEEPSPFRGRSRSAPPNLWA [1A10, array peptide from BAD] | – | ++
10 | DELYRQSLEIISRYLREQATGAKDT [2D23, array peptide from Mcl-1] | + | –
11 | DQCTGLQGFLVFHSFGGGTGSGFTS [2A2, array peptide from tubulin alpha 1b] | – | +
12 | DQGGWGLPLAESLKRLMSLSPGRPP [1B13, array peptide from BAX] | + | +++
13 | EDFSETLTRAKFEELNMDLFRSTMK [2L5, array peptide from BiP1] | – | +
14 | ELEEIVQPIISKLYGSAGPPPTGEE [2M15, array peptide from BiP1] | +++ | ++
15 | EQGVLSFWRGNLANVIRYFPTQALN [1F19, array peptide from ANT3] | + | +++
16 | ERPLTKDNHLLGTFDLTGIPPAPRG [2L22, array peptide from BiP1] | + | ++
17 | EVAASAILTAQLDEELGGTPVQSRV [2I10, array peptide from gelsolin isoform b] | + | –
18 | FDGALNVDLTEFQTNLVPYPRIHFP [2A15, array peptide from tubulin alpha 1b] | ++ | –
19 | FKDKYKQIFLGGVDKHTQFWRYFAG [1F22, array peptide from ANT3] | – | +
20 | FPTQALNFAFKDKYKQIFLGGVDKH [1F21, array peptide from ANT3] | – | +++
21 | FRDEGGKAFFKGAWSNVLRGMGGAF [1G17, array peptide from ANT3] | – | +

Row | Sequence | Spot intensity, detected using anti-VDAC1 internal sequence | Spot intensity, detected using anti-N-terminus VDAC1
22 | FRGLGDCLVKITKSDGIRGLYQGFS [1G5, array peptide from ANT3] | – | +++
23 | FTEDELPYDDCVFGGQRLTL [2G5] | – | +
24 | FVDWCPTGFKVGINYQPPTVVPGGD [2B2, array peptide from tubulin alpha 1b] | – | +
25 | GGGPTSSEQIMKTGALLLQGFIQDR [1A21, array peptide from BAX] | – | +
26 | GGVFTKLINRNTTIPTKKSQVFSTA [2O21, array peptide from HSP-70] | – | +
27 | GKEPAHLMSLFGGKPMIIYKGGTSR [2I13, array peptide from gelsolin isoform b] | – | +
28 | GNLANVIRYFPTQALNFAFKDKYKQ [1F20, array peptide from ANT3] | + | +++
29 | GRTWNDPSVQQDIKFLPFKVVEKKT [2K5, array peptide from BiP1] | – | +
30 | GTATQMRQSSSWTRVFQSWWDRNLG [1A16, array peptide from BAD] | – | ++
31 | HSSYPAGTEDDEGMGEEPSPFRGRS [1A9, array peptide from BAD] | – | ++
32 | HVAENPSIQLLEGNPGPPADPDGGP [1L14, array peptide from MAVS] | +++ | –
33 | IEDFKAKKKELEEIVQPIISKLYGS [2M14, array peptide from BiP1] | ++ | ++
34 | IEIESFYEGEDFSETLTRAKFEELN [2L4, array peptide from BiP1] | ++ | +
35 | IFVGIKKKEERADLIAYLKKATNE [1D15, array peptide from cytochrome c] | + | ++
36 | IKKKEERADLIAYLKKATNE [1D16, array peptide from cytochrome c] | + | ++
37 | IMGWTLDFLRERLLGWIQDQGGWGL [1B11, array peptide from BAX] | – | +++
38 | IMKTGALLLQGFIQDRAGRMGGEAP [1A22, array peptide from BAX] | – | +++
39 | ISAMVLTKMKETAEAYLGKKVTHAV [2K10, array peptide from BiP1] | – | ++
40 | ITATQKTVDGPSGKLWRDGRGALQN [2C10, array peptide from GAPDH1] | – | +
41 | KCELSSSVQTDINLPYLTMDSSGPK [2O6, array peptide from HSP-70] | – | +
42 | KDFLAGGIAAAISKTAVAPIERVKL [1F13, array peptide from ANT3] | – | ++

Row | Sequence | Spot intensity, detected using anti-VDAC1 internal sequence | Spot intensity, detected using anti-N-terminus VDAC1
43 | KFHGTVKAENGKLVINGNPITIFQE [2B20, array peptide from GAPDH1] | +++ | –
44 | KGLPRPKSAGTATQMRQSSSWTRVF [1A15, array peptide from BAD] | – | ++
45 | KIISNASCTTNCLAPLAKVIHDNFG [2C6, array peptide from GAPDH1] | ++ | +++
46 | KLQMGKKLPLHLTLPQALPQYAGSG [1N5, array peptide from CD4] | – | ++
47 | KTGPNLHGLFGRKTGQAPGYSYTAA [1D9, array peptide from cytochrome c] | – | +
48 | KVQRAVCMLSNTTAIAEAWARLDHK [2B5, array peptide from tubulin alpha 1b] | – | +
49 | LDIERPTYTNLNRLISQIVSSITAS [2A12, array peptide from tubulin alpha 1b] | ++ | –
50 | LIGIPPAPRGVPQIEVTFDIDANGI [2P3, array peptide from HSP-70] | – | +
51 | LLGTFDLTGIPPAPRGVPQIEVTFE [2L23, array peptide from BiP1] | + | +++
52 | LVFHSFGGGTGSGFTSLLMERLSVD [2A3, array peptide from tubulin alpha 1b] | + | +++
53 | MEVIRQVKGDLAFLNFQNNLQQTPL [2F6] | – | +
54 | MGKVKVGVNGFGRIGRLVTRAAFNS [2B14, array peptide from GAPDH1] | – | +++
55 | MTEQAISFAKDFLAGGIAAAISKTA [1F12, array peptide from ANT3] | – | +
56 | MVVEHPEFLKAGKEPGLQIWRVEKF [2G8, array peptide from gelsolin isoform b] | – | +++
57 | NGKLVINGNPITIFQERDPSKIKWG [2B21, array peptide from GAPDH1] | – | +
58 | NMKLTRAQFEGIVTDLIRRTIAPCQ [2O9, array peptide from HSP-70] | ++ | +
59 | PASTGAAKAVGKVIPELNGKLTGMA [2C13, array peptide from GAPDH1] | – | +
60 | PLAESITDVLVRTKRDWLVKQRGWD [2E12, array peptide from Mcl-1] | – | ++
61 | PYQLTWGRPSTRIQQQLGQLTLENL [2F24] | – | +++
62 | QGCLASVGVLTQSCTTPHLHSILKA [2F13] | – | ++
63 | QLTLENLQMLPESEDEESYDTESEF [2G2] | ++ | –
